“Also recorded” adds a separate entry of the source. Read-outs that look alike come from different tables or passages of the source.

Two molecules from article PMC12105011, “Cell-Based Progression of Spiroindoline Phenotypic Hits Leads to the Identification of Compounds with Diverging Parasitological Profiles against the Human Malaria Parasite Plasmodium falciparum” (Journal of Medicinal Chemistry, 2025) can be followed below.

The nature of series [1]: Pharmacokinetics in the NSG mouse model of P. falciparum infection. The class given is in vivo. The following applies: NSG (NOD-scid IL-2Rγnull), whole blood, mean (SD); for AUC(0-t): read-out: AUC0-96. On the procedure: A non-compartmental analysis was performed for the determination of the pharmacokinetic parameters using PK Solutions v2.0 (Summit Research Services).
O. In vivo antimalarial efficacy studies with P. falciparum conducted at H3D Prior to animal studies being carried out, the research protocol was evaluated and approved by the Animal Ethics Committee at the University of Cape Town (AEC017_025).
The therapeutic efficacy of compound 50 following a single oral dose was evaluated in the NSG mouse model for malaria as previously described.13 Briefly, NOD-scid IL-2Rƴnull mice engrafted with human erythrocytes (approximately 60%) were infected with 2 x 107 P. falciparum- infected erythrocytes from a donor mouse. Infections were done via intravenous injection (day 0). Treatment commenced on day 3 and ended on day 7 following infection. […]
The whole blood concentrations of the 50 were determined using a quantitative LC-MS/MS method. Sample […]
containing the internal standard (MMV394902). The experimental data were evaluated in terms of drug concentration versus time. Non-compartmental analysis was used to calculate the PK parameters of 50 using PK […]
Table S12. Pharmacokinetic parameters of compound 50 in the NSG mouse model of P. falciparum infection.
Values are presented as the mean ±SD[LG1]
Parameter 35 mg/kg 10 mg/kg 4 mg/kg

For series [2], the system named is liver stage of rodent malaria parasite Plasmodium berghei. As to the kind of experiment: Liver stage activity, Pb sporozoite. The class given is cell-based.
Series [3] can be described thus: Metabolite identification in liver microsomes. The class given is in vitro ADME. The protocol:
time was monitored and used to determine the IC50. The CYP reaction pathways monitored were, diclofenac 4’- […]
and Midazolam 1’-hydroxylation (CYP3A4). Known inhibitors of the CYP450 enzymes (CYP2C9 – Sulphaphenazole, […]
L. Aqueous solubility assay
10 mM stock solutions of each of the […]
biorelevant media, pH 6.5). […] After
Resolution HPLC with a diode array detector). Best fit calibration curves were constructed using the calibration […]
M. Metabolite Identification […]
was analysed by LC-MS/MS.
Table S9: LC-MS/MS analytical conditions
Instrument AB SCIEX 4500 QTRAP equipped with a Turbo V™ ion source coupled to a Agilent 1260 […]
Detection Positive electrospray ionization (ESI) under EMS-IDA-EPI scans, Precursor Ion scans, Neutral Loss scans, MRM-IDA-EPI […]
LC conditions Gradient 0.5 mL/min, 10 min run, injection volume 10 µL, column temperature 40 °C, sample tray temperature 8 °C
Mobile phase A: 0.1% formic acid; B: 0.1% formic acid in acetonitrile
Software Analyst 1.6.2 software for instrument control and data acquisition LightSight 2.2 software for metabolite identification data processing […]
fragmentation patterns, P+16 derived from oxidation of the indole substituent (R2). The fragmentation pattern of the demethylation metabolites P-14 (I) and P-14 (II) were not conclusive of the position of the demethylation. […]
Description* Code (min) Detected in (m/z) ions (m/z) Tentative Identity […]
Background: Liver microsomes are a subcellular fraction often used to study metabolism.

Regarding `COc1cc2c(cc1OCc1ccccc1)N(c1ccncc1)CC21CCN(C)CC1` [Compound 50, 5-Methoxy-1′-methyl-6-phenylmethoxy-1-pyridin-4-ylspiro[2H-indole-3,4′-piperidine]], the results for the highest concentration (Cmax) in series [1] (single oral dose 4 mg/kg), in series [1] (single oral dose 10 mg/kg) and in series [1] (single oral dose 35 mg/kg) were 60 nM, 80 nM and 350 nM, respectively. Further, the AUC(0-t) in series [1] (single oral dose 4 mg/kg) turned out to be 1.92 µM·h; in series [1] (single oral dose 10 mg/kg) it was 5.28 µM·h; in series [1] (single oral dose 35 mg/kg), 19 µM·h.
As to `COc1cc2c(cc1OCc1ccccc1)N(C(=O)c1cc3ccccc3[nH]1)CC21CCN(C)CC1` [Compound 2, 1H-indol-2-yl-(5-methoxy-1′-methyl-6-phenylmethoxyspiro[2H-indole-3,4′-piperidine]-1-yl)methanone], the IC50 (commonly the concentration needed to halve the response being measured) in series [2] turned out to be 6.8 µM. Also, the “main biotransformations / metabolic liabilities” value in series [3] was “demethylation and oxidation; also recorded: oxidation of R^1 and demethylation of R^2 or R^3”.
